A short description of data set [1]: Stability in mouse serum. Type of data set: in vitro ADME. The source says: TABLE 1 Pharmacokinetic parameters of PROTAC 2. | column: Stability (hours) ^b / m‐serum
Data set [2] concerns the target human serum albumin (Homo sapiens, UniProt P02768). The data set is described as follows: Human serum albumin binding. The source says: TABLE 1 Pharmacokinetic parameters of PROTAC 2. | column: HSA binding ^c
Data set [3] concerns HGADFN167 cells. The data set is described as follows: RNA-seq global transcriptomic analysis. It is filed as cell-based, human. To be noted: HGADFN167, 5 µM, 20 days. Here is the method:
To establish the broader impact of PROTAC 2 at the molecular level, we performed detailed gene expression and pathway‐centric enrichment analysis. HGADFN167 cells were treated with either vehicle or compound 2 (5 µM) for 20 days before RNA was extracted for RNA‐seq analysis (3 independent biological samples per condition). […] Remarkably, IL6 identification supports the qPCR results previously obtained (Figure 6C). […] In line with these findings, we identified several genes associated with endothelial and blood vessel development (CLDN11 and FOXS1), ECM organization (PTX3, SCUBE3, TINAGL1, and TNFRSF11B), and mesodermal and mesenchymal regulation (MEST, MEDAG, and STC2).
Cells were harvested by trypsin, centrifuged and washed with PBS. Cells pellets were added with 70% (vol/vol) ice-cold ethanol. The mixture was incubated for 15min at 4 °C, centrifuged 2500 rpm, washed with PBS and then re-suspended in 500ul staining buffer (25ug/mL propidium iodide and 100μg/ml DNAse-free RNAse both from Sigma-Aldrich in PBS). The mixture was then allowed to incubate for 30min at 37 °C in the dark and samples were finally analysed by FACScalibur (Becton Dickinson) flow cytometer
11. Transmission electron microscopy.
Cells previously collected in 1.5 mL tube, were washed with PBS and fixed with 2.5% glutaraldehyde and 4% paraformaldehyde in Milloning´s phosphate buffer (41.5 mL 2.26% NaH2PO4·H2O and 8.5 mL 2.52% NaOH both in milliQ water, pH 7.2-7.4) for 4h at 4 °C. […]
Cells were incubated for 1 h in 1% OsO4 at room temperature and then thoroughly washed with milliQ water. […] The samples were analysed and examined in the transmission electron microscope JEM 1010 at 80 […]
Total RNA of HGPS fibroblasts (HGADFN167) and UCM-18142-treated HGPS fibroblasts were extracted for RNA sequencing. The RNA concentration and integrity were assessed using the Tape Station 4150 system (Agilent). […] All raw reads were mapped to the human genome (Grch38) using the software HISAT2. HTSeq was used to calculate Reads Count and transcripts per kilobase per million reads were computed. […]

Each structure is given as a SMILES string.

human serum albumin, sequence (P02768 25-609): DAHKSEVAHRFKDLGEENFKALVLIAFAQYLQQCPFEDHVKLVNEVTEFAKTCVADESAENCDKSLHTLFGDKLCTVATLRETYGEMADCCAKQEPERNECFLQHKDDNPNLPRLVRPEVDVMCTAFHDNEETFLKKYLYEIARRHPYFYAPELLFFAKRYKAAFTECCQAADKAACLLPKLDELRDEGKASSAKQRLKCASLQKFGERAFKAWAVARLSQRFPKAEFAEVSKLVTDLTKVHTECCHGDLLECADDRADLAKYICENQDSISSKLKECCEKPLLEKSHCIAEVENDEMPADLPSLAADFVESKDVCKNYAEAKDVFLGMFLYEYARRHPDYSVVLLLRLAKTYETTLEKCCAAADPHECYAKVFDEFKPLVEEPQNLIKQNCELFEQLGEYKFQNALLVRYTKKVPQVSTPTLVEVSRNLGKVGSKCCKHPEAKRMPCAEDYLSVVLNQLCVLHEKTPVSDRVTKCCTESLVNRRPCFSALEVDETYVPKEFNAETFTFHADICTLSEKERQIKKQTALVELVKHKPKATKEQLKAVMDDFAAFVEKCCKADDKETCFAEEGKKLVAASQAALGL

As for `CC1(C)Oc2cc3oc(=O)ccc3cc2C[C@@H]1OC(=O)CCCCCNc1cccc2c1C(=O)N(C1CCC(=O)NC1=O)C2=O` (stereo partly drawn) [compound 2], the “Stability (hours) m‐serum” value in data set [1] was 0.28 ± 0.02 h. The molecule further showed an HSA binding in data set [2] of 99%. Besides, the Kd in data set [2] (read-out: HSA binding K D) stood at 5.8 µM. This molecule yielded a downregulated genes in data set [3] (adjusted p<0.01, log2 FC <−1.0) of 205. This molecule yielded an upregulated genes in data set [3] (adjusted p<0.01, log2 FC >1.0) of 83. For the same molecule, the “differentially expressed genes, treated vs non‐treated” value in data set [3] (adjusted p<0.01, log2 FC >1.0 or <−1.0) is given as 288.

The record behind these values is article PMC13252604, “First Generation Proteolysis Targeting Chimeras (PROTACs) for the Treatment of Progeria” (Advanced Science, 2026).
